CC[C@H]1OC(=O)[C@H](C)[C@@H](O[C@H]2C[C@@](C)(OC)[C@@H](O)[C@H](C)O2)[C@H](C)[C@@H](O[C@@H]2O[C@H](C)C[C@H](N(C)C)[C@H]2O)[C@](C)(O)C[C@@H](C)CN(C)[C@H](C)[C@@H](O)[C@]1(C)O.O
solubility (mole fraction)
Conditions	278.15 K	283.15 K	288.15 K	293.15 K	298.15 K	303.15 K	308.15 K	313.15 K	318.15 K	323.15 K
in acetone	0.0305	0.0329	0.0353	0.0386	0.0424	0.0464	0.0512	0.0569	0.063	0.0721
in ethanol	0.0299	0.0325	0.0348	0.0371	0.0406	0.0451	0.0491	0.0538	0.0573	0.0588
in ethyl acetate	0.0324	0.0341	0.0366	0.0396	0.0436	0.0521	0.0593	0.0671	0.0743	0.081
in isopropanol	0.0281	0.0303	0.0327	0.0349	0.0388	0.0433	0.0459	0.0507	0.0542	0.0575
in n-butanol	0.0249	0.0254	0.0274	0.0282	0.0301	0.0324	0.0356	0.0386	0.0422	0.0466
